# According to BindingDB's records for doi:10.7270/Q2W957K6 (Pcmd, 2008):
# Molecular target: Coagulation factor XI (Homo sapiens, UniProt P03951)
# Experiment: human FXIa inhibitor potency, dose response, biochemical (AID 679)
# Sequence of Coagulation factor XI (P03951 19-387 limits assumed): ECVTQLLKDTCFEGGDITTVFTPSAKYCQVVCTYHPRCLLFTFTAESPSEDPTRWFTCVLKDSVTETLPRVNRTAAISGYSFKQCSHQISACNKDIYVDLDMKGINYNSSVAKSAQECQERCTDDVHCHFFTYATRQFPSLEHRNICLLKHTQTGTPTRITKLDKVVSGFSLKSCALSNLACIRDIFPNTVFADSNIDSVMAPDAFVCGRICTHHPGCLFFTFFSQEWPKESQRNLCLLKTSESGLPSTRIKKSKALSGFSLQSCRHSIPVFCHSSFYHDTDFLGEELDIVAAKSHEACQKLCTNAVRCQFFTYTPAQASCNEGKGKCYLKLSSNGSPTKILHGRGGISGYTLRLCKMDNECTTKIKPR
# Sequence of Coagulation factor XI (P03951 388-625 limits assumed): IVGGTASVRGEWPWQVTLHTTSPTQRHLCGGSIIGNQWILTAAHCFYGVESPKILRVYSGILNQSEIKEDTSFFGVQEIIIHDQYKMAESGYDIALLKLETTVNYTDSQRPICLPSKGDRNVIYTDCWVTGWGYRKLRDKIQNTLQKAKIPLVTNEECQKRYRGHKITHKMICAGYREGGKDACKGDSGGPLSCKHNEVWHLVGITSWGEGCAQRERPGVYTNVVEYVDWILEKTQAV
row,Compound,IC50 [µM]
1,"Cc1cc(=O)[nH]c(-n2[nH]c(C)cc2=O)n1 [6-methyl-2-(3-methyl-5-oxo-2,5-dihydro-1H-pyrazol-1-yl)-4(3H)-pyrimidinone]",> 50
2,COc1ccc2c(=O)cc(-c3ccccc3)n(C)c2c1 [7-methoxy-1-methyl-2-phenyl-4-quinolinone],> 50
3,CCOc1cccc2cc(C(N)=O)/c(=N/Cc3ccccc3)oc12 [8-ethoxy-2-(phenylmethyl)imino-chromene-3-carboxamide],> 50
4,CCc1ccc(CC2SC(=C(C#N)C(C)=O)NC2=O)cc1 (centres undefined) [(2E)-2-[5-[(4-ethylphenyl)methyl]-4-oxo-2-thiazolidinylidene]-3-oxobutanenitrile],> 50
5,CC(C)c1nc2ccc(NC(=O)C3CCCCC3)cc2[nH]1 [Cyclohexanecarboxylic acid (2-isopropyl-1H-benzoimidazol-5-yl)-amide],> 50
6,O=S(=O)(Cc1ccccc1)N1CCC(c2nc(-c3cccs3)no2)CC1 [MLS000027341],> 50
7,Cc1c(O)ccc(C(=O)CN2C(=O)c3ccccc3C2=O)c1O [MLS000050535],> 50
8,CCOC(=O)c1c(C)n(Cc2ccccc2)c2ccc(OCC(O)Cn3nc(C)cc3C)cc12 (centres undefined) [MLS000121399],> 50
9,COc1cccc(C(=O)N(Cc2ccccc2)Cc2cc3cc4c(cc3nc2O)OCCO4)c1 [MLS000123157],10.4
10,CCOc1ccc(S(=O)(=O)NCc2ccc(OC)cc2)c2cccnc12 [MLS000521584],> 50
11,O=C(Oc1ccc2c(=O)c(Cl)coc2c1)c1cccnc1 [MLS000523505],> 50
12,Cc1ccc(C(=O)n2nnc3ccccc32)cc1 [MLS000527467],2.39
13,CCC1(c2ccccc2)C(=O)N(C)C(=O)N(C)C1=O [MLS000532164],> 50
14,CC1=C(C(=O)OC(C)C)C(c2coc3ccccc3c2=O)C2C(=O)CCCC2=N1 (centres undefined) [MLS000533594],> 50
15,C=CCn1c(=O)c2c(nc(Br)n2Cc2ccccc2Cl)n(C)c1=O [MLS000555959],0.638
16,Cc1c(NC(=O)c2cc3ccccc3o2)c(=O)n(-c2ccccc2)n1C [MLS000556522],> 50
17,"CCOc1cc(S(=O)(=O)N(Cc2ccccc2)Cc2ccccc2)c(OCC)cc1-n1cnnn1 [N,N-Dibenzyl-2,5-diethoxy-4-tetrazol-1-yl-benzenesulfonamide]",> 50
18,"Cn1nnnc1SCC(=O)N(C1CCCCC1)C1CCCCC1 [N,N-dicyclohexyl-2-[(1-methyl-5-tetrazolyl)thio]acetamide]",> 50
19,"CCc1ccc(NC(=O)Cn2nc(C(F)(F)F)c3c2CCC3)cc1 [N-(4-Ethyl-phenyl)-2-(3-trifluoromethyl-5,6-dihydro-4H-cyclopentapyrazol-1-yl)-acetamide]",> 50
20,Cc1ccc(NS(=O)(=O)c2ccc(OCC(=O)N3CCOCC3)cc2)cc1 [N-(4-methylphenyl)-4-(2-morpholin-4-yl-2-oxidanylidene-ethoxy)benzenesulfonamide],> 50
21,CCC1CC2CC(NC(C)=O)C1C2 (centres undefined) [N-(5-ethyl-3-bicyclo[2.2.1]heptanyl)ethanamide],0.588
22,Cc1ccc(N(C(=O)c2ccccn2)C2(C(=O)NC3CCCC3)CCCCC2)cc1 [N-[1-(cyclopentylcarbamoyl)cyclohexyl]-N-(4-methylphenyl)pyridine-2-carboxamide],> 50
23,"Cc1ccc(-c2csc(N3CCC(NS(=O)(=O)c4ccc5c(c4)OCCO5)CC3)n2)cc1 [N-[1-[4-(4-methylphenyl)-1,3-thiazol-2-yl]piperidin-4-yl]-2,3-dihydro-1,4-benzodioxine-6-sulfonamide]",> 50
24,"COc1ccc(OCC(=O)Nc2cc(-c3nn(C)c(=O)c4ccccc34)ccc2OC)cc1 [N-[2-Methoxy-5-(3-methyl-4-oxo-3,4-dihydro-phthalazin-1-yl)-phenyl]-2-(4-methoxy-phenoxy)-acetamide]",> 50
25,CCOC(=O)N=S(=O)(Oc1ccc([N+](=O)[O-])cc1)c1ccccc1 (centres undefined) [N-[(4-nitrophenoxy)-oxo-phenyl--sulfanylidene]carbamic acid ethyl ester],> 50

row,Compound,IC50 [µM]
1,CN(CCOc1ccccc1)c1ccc(S(=O)(=O)N2CCCCC2)cn1 [N-methyl-N-(2-phenoxyethyl)-5-piperidin-1-ylsulfonylpyridin-2-amine],> 50
2,Cc1cccc(NC(=O)c2snc3c(=O)[nH]cnc23)c1 [SMR000000702],> 50
3,CCCN(CCC)C(C(=O)Nc1cccc(OC)c1)c1ccccc1 (centres undefined) [SMR000064514],> 50
4,CCCC(=O)n1nc(-c2ccccc2)nc1SC [SMR000113998],> 50
5,O=C(Oc1cccc(-n2cnnn2)c1)c1ccco1 [SMR000117840],4.06
6,O=C(c1cccc2ccccc12)n1nnc2ccccc21 [SMR000118701],> 50
7,COC(=O)C(Cc1c[nH]c2ccccc12)NC(C)=O (centres undefined) [SMR000121078],6.69
8,COCC/N=C1\Sc2nc3c(C)cccc3cc2CN1Cc1ccco1 [SMR000122349],0.745
9,COc1cc(C=c2sc3n(c2=O)CCCN=3)ccc1O [SMR000126740],> 50
10,O=C(c1ccc(F)cc1)N1CCN(C(=O)c2cccnc2)CC1 [SMR000140978],> 50
11,COC(=O)c1sc(NC(=O)CC(C)C)c(C(=O)OC)c1C [SMR000141040],> 50
12,Cc1cc(C)n2nc(C(=O)Nc3ccc4c(c3)OCO4)cc2n1 [SMR000144727],> 50
13,CCc1c(O)nc(SCC(=O)NC(C)(C)C)n(-c2ccccc2)c1=O [SMR000147407],> 50
14,N#Cc1c(N)nc2c(c1N)=C(N)SC1=NC(=O)CC(c3ccccc3Cl)C=21 (centres undefined) [SMR000147835],> 50
15,CNC(=O)COC(=O)c1[nH]c(C)c(C(C)=O)c1C [SMR000152883],> 50
16,COc1ccccc1-n1cnnc1SCC(=O)Nc1nc(C)c(Cl)cc1Cl [SMR000153344],10.2
17,CCn1c(SCC(=O)c2[nH]c(C)c(C(C)=O)c2C)nnc1-c1ccccc1 [SMR000153346],7.44
18,Cc1cnc(C(=O)OCC(=O)NCc2ccccc2)cn1 [[2-(benzylamino)-2-oxoethyl] 5-methylpyrazine-2-carboxylate],> 50
19,"Cc1cc(NC(=O)COC(=O)c2c(C)nn(Cc3ccccc3)c2C)no1 [[2-[(5-methyl-1,2-oxazol-3-yl)amino]-2-oxoethyl] 1-benzyl-3,5-dimethylpyrazole-4-carboxylate]",> 50
20,"COC(=O)CSc1nnc(C)n1-c1cccc(OC)c1 [[4-(3-Methoxy-phenyl)-5-methyl-4H-[1,2,4]triazol-3-ylsulfanyl]-acetic acid methyl ester]",2.36
21,"CCOC(=O)c1cc2c(ccn2C)n1CC(=O)N1CCC(C)CC1 [ethyl 1-methyl-4-[2-(4-methylpiperidin-1-yl)-2-oxoethyl]pyrrolo[3,2-b]pyrrole-5-carboxylate]",0.744
22,"CCOC(=O)c1c(C)nc2c(c1C)c(=O)oc1ccccc12 [ethyl 2,4-dimethyl-5-oxochromeno[4,3-b]pyridine-3-carboxylate]",> 50
23,"COC(=O)c1ccc(NC(=O)Cc2c(O)n(-c3ccc(C)cc3)c(=O)n2CC(C)C)cc1 [methyl 4-[2-[1-(4-methylphenyl)-3-(2-methylpropyl)-2,5-bis(oxidanylidene)imidazolidin-4-yl]ethanoylamino]benzoate]",> 50
24,"COC(=O)c1[nH]c2ccc(Br)cc2c1NC(=O)CN1CCCc2ccccc21 [methyl 5-bromanyl-3-[2-(3,4-dihydro-2H-quinolin-1-yl)ethanoylamino]-1H-indole-2-carboxylate]",> 50
